This is an account of results in PubChem BioAssay AID651630 (Sanford-Burnham Center for Chemical Genomics, 2012).

Activity calls are given as the source filed them.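 How the source made its calls: active means lipid-stain IC50 at or below a set limit, with nuclear-stain toxicity IC50 at least five times higher; inactive means the rest.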 Bounds are passed on as bounds.

One experiment deals with TAG. Briefly: triacylglycerol accumulation inhibitor potency, dose response, cell-based, panel, Nile Red and DAPI fluorescence, H9c2 (AID 651630).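 Further: cells exposed to compound overnight before fixation and staining.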 The conditions noted are these: H9c2 cells, Nile Red TAG fluorescence, oleic acid.
A further experiment relates to DAPI. The description is as above. The conditions noted are these: H9c2 cells, DAPI nuclear fluorescence (cytotoxicity counter-readout), oleic acid.

Usually IC50 stands for the point on the concentration scale where inhibition reaches its midpoint. Regarding `COc1cc(-c2nnc3n2N=C(c2ccccc2)CS3)cc(OC)c1OC`, the figures for the IC50 in the experiment on TAG (mean of runs), in the experiment with TAG (run 1) and with TAG (run 2) were 13.4 µM, 14.9 µM and 12 µM, respectively. Also, the IC50 cytotoxicity (DAPI nuclear signal decrease) with DAPI (mean of runs) was > 25 µM (inactive); in the experiment with DAPI (run 1), over 25 µM; in the experiment with DAPI (run 2) it was over 25 µM.

`Cc1ccc(CN(C)C(=O)CN2C(=O)NC3(CCCc4ccccc43)C2=O)c(C)c1` (stereo not drawn): the figures for the IC50 in the experiment with TAG (run 1) and in the experiment with TAG (run 2) were 21.7 µM and over 25 µM, respectively. The values for the IC50 cytotoxicity (DAPI nuclear signal decrease) in the experiment with DAPI (mean of runs), in the experiment on DAPI (run 1) and in the experiment with DAPI (run 2) were > 25 µM (inactive), over 25 µM and over 25 µM, respectively.

On to `N#C/C(=C\Nc1ccc2cn[nH]c2c1)c1nc(-c2ccc(Cl)cc2)cs1`, for which the half-inhibitory concentration (IC50) with TAG (mean of runs) is 11.1 µM; in the experiment with TAG (run 1), 8.39 µM; in the experiment on TAG (run 2), 13.8 µM. Besides, the IC50 cytotoxicity (DAPI nuclear signal decrease) in the experiment on DAPI (mean of runs) is 17.8 µM (inactive); with DAPI (run 1), 23.7 µM; in the experiment with DAPI (run 2) it was 12 µM.

Take `CC(C)c1ccc(Nc2nc(N3CCOCC3)nc(N3CCOCC3)n2)cc1`: the figures for the IC50 with TAG (mean of runs), in the experiment on TAG (run 1) and in the experiment with TAG (run 2) were 3.9 µM, 4.38 µM and 3.41 µM, respectively. The IC50 cytotoxicity (DAPI nuclear signal decrease) in the experiment with DAPI (run 1) and in the experiment with DAPI (run 2) was over 25 µM each time.

Consider `CN(C)CCCn1c(=O)n(C2CCCCC2)c(=O)c2c3c(sc21)CCCCC3`, for which the results for the IC50 in the experiment with TAG (mean of runs), in the experiment with TAG (run 1) and in the experiment with TAG (run 2) were > 25 µM (inactive), over 25 µM and over 25 µM, respectively. Further, the IC50 cytotoxicity (DAPI nuclear signal decrease) with DAPI (mean of runs) is > 25 µM (inactive); with DAPI (run 1) it was over 25 µM; with DAPI (run 2), over 25 µM.

For the compound `Cc1ccc(NC(=S)N(CCCN2CCCC2)Cc2cccn2Cc2ccc(Cl)cc2)cc1Cl`, the values for the IC50 in the experiment on TAG (mean of runs), in the experiment on TAG (run 1) and in the experiment on TAG (run 2) were > 25 µM (inactive), over 25 µM and over 25 µM, respectively. The results for the IC50 cytotoxicity (DAPI nuclear signal decrease) in the experiment with DAPI (run 1) and in the experiment on DAPI (run 2) were over 25 µM and 23.1 µM, respectively.

Consider `COc1ccccc1Nc1nnc(SCC(=O)Nc2nc(-c3ccc(F)cc3)cs2)s1`, for which the IC50 with TAG (mean of runs) was > 25 µM (inactive); in the experiment on TAG (run 1) it was over 25 µM; in the experiment on TAG (run 2) it was over 25 µM. The values for the IC50 cytotoxicity (DAPI nuclear signal decrease) in the experiment with DAPI (mean of runs), in the experiment on DAPI (run 1) and with DAPI (run 2) were > 25 µM (inactive), over 25 µM and over 25 µM, respectively.

`COc1ccc(NC(=O)C2(C)Cc3c(-c4ccc5c(c4)OCO5)ccnc3O2)cn1` (stereo not drawn): the figures for the IC50 with TAG (mean of runs), in the experiment with TAG (run 1) and in the experiment with TAG (run 2) were > 25 µM (inactive), over 25 µM and over 25 µM, respectively. In addition, the figures for the IC50 cytotoxicity (DAPI nuclear signal decrease) in the experiment on DAPI (mean of runs), with DAPI (run 1) and in the experiment on DAPI (run 2) were > 25 µM (inactive), over 25 µM and over 25 µM, respectively.

`CC(C)=CCC/C(C)=C/CNC(=O)C[C@H]1C[C@H](C(=O)N2CCCCC2)[C@@]2(CCc3ccccc3)c3[nH]c4cc(-c5ccco5)ccc4c3CCN2C1=O`: the IC50 with TAG (mean of runs) is 9.94 µM; in the experiment with TAG (run 1), 10.5 µM; with TAG (run 2), 9.42 µM. Moreover, the figures for the IC50 cytotoxicity (DAPI nuclear signal decrease) with DAPI (mean of runs), in the experiment on DAPI (run 1) and in the experiment on DAPI (run 2) were > 25 µM (inactive), over 25 µM and over 25 µM, respectively.

For the compound `Cc1ccccc1NC(=O)CSc1nc(Nc2ccccc2)nc(N2CCOCC2)n1`, the IC50 in the experiment on TAG (mean of runs) was 12.9 µM; in the experiment on TAG (run 1) it was 15.7 µM; with TAG (run 2) it was 10 µM. Further, the IC50 cytotoxicity (DAPI nuclear signal decrease) in the experiment on DAPI (mean of runs) was > 25 µM (inactive); with DAPI (run 1), over 25 µM; with DAPI (run 2) it was over 25 µM.

`CCN(C(=O)COC(=O)c1ccc([N+](=O)[O-])o1)c1cccc2ccccc12`: the values for the IC50 with TAG (run 1) and in the experiment with TAG (run 2) were 19.4 µM and over 25 µM, respectively. Besides, the results for the IC50 cytotoxicity (DAPI nuclear signal decrease) with DAPI (mean of runs), in the experiment with DAPI (run 1) and in the experiment with DAPI (run 2) were 20 µM (inactive), 18.1 µM and 21.9 µM, respectively.

As to `Cc1ccc(C(=O)NCCN2C3=NC[C@H](C(C)C)N3C[C@H]2Cc2ccc(O)cc2)cc1Br`, the IC50 in the experiment on TAG (mean of runs) is 16.8 µM (inactive); in the experiment with TAG (run 1), 16.9 µM; with TAG (run 2) it was 16.7 µM. The figures for the IC50 cytotoxicity (DAPI nuclear signal decrease) in the experiment with DAPI (mean of runs), in the experiment with DAPI (run 1) and in the experiment on DAPI (run 2) were > 25 µM (inactive), over 25 µM and over 25 µM, respectively.

For `Cc1ccc(Oc2ccc(S(=O)(=O)N3CCOCC3)cc2C(N)=O)c(-n2nc3ccccc3n2)c1`, the IC50 is > 25 µM (inactive) in the experiment on TAG (mean of runs), over 25 µM with TAG (run 1) and over 25 µM in the experiment with TAG (run 2). For the same compound, the values for the IC50 cytotoxicity (DAPI nuclear signal decrease) in the experiment on DAPI (mean of runs), in the experiment with DAPI (run 1) and in the experiment with DAPI (run 2) were > 25 µM (inactive), over 25 µM and over 25 µM, respectively.

In the case of `CNCCCN1c2ccccc2CCc2ccccc21`, the IC50 with TAG (mean of runs) is > 25 µM (inactive); with TAG (run 1) it was over 25 µM; in the experiment with TAG (run 2) it was over 25 µM. The IC50 cytotoxicity (DAPI nuclear signal decrease) was > 25 µM (inactive) in the experiment on DAPI (mean of runs), over 25 µM in the experiment on DAPI (run 1) and over 25 µM in the experiment with DAPI (run 2).

`Cc1onc(NC(=O)c2ccc([N+](=O)[O-])o2)c1Br`: the IC50 with TAG (mean of runs) was > 25 µM (inactive); in the experiment on TAG (run 1), over 25 µM; in the experiment on TAG (run 2) it was over 25 µM. For the same compound, the IC50 cytotoxicity (DAPI nuclear signal decrease) is > 25 µM (inactive) with DAPI (mean of runs), over 25 µM with DAPI (run 1) and over 25 µM in the experiment on DAPI (run 2).

`CCCCCCCC(=O)Nc1cc(C(=O)NCCC)ccc1N1CCC2(CC1)CC(c1cccc(Br)c1)=NO2`: the IC50 in the experiment on TAG (mean of runs) was 15.2 µM (inactive); with TAG (run 1), 11.8 µM; with TAG (run 2) it was 18.6 µM. Besides, the IC50 cytotoxicity (DAPI nuclear signal decrease) in the experiment with DAPI (mean of runs) is > 25 µM (inactive); with DAPI (run 1), over 25 µM; with DAPI (run 2), over 25 µM.

`O=c1cc(-c2ccccc2)[nH]c2ccccc12`: the concentration for half-maximal inhibition (IC50) was 3.61 µM with TAG (mean of runs), 2.45 µM with TAG (run 1) and 4.77 µM in the experiment with TAG (run 2). Also, the IC50 cytotoxicity (DAPI nuclear signal decrease) in the experiment on DAPI (run 1) was 20.5 µM; in the experiment with DAPI (run 2) it was over 25 µM.

Turning to `CN(C)c1ccc(NC(=O)Nc2nc(C(N)C3CCCCC3)cs2)cc1` (stereo not drawn), the IC50 in the experiment on TAG (mean of runs) is > 25 µM (inactive); in the experiment on TAG (run 1), over 25 µM; in the experiment with TAG (run 2) it was over 25 µM. The IC50 cytotoxicity (DAPI nuclear signal decrease) with DAPI (mean of runs) is > 25 µM (inactive); in the experiment with DAPI (run 1), over 25 µM; in the experiment with DAPI (run 2), over 25 µM.

`Cc1nc(C(=O)Nc2ccccc2Cl)cc2c1[nH]c1ccccc12`: the 50% inhibitory concentration (IC50) with TAG (mean of runs) is 3.06 µM; in the experiment with TAG (run 1), 2.87 µM; in the experiment on TAG (run 2), 3.24 µM. The IC50 cytotoxicity (DAPI nuclear signal decrease) with DAPI (run 1) and in the experiment with DAPI (run 2) was over 25 µM throughout.

Consider `O=C(Nc1ccc(-c2csc(Nc3cccc(C(F)(F)F)c3)n2)cc1)c1cc([N+](=O)[O-])cc(C(F)(F)F)c1`, for which the IC50 in the experiment with TAG (mean of runs) was 10.9 µM; with TAG (run 1), 10.8 µM; in the experiment on TAG (run 2) it was 11.1 µM. The IC50 cytotoxicity (DAPI nuclear signal decrease) was > 25 µM (inactive) with DAPI (mean of runs), over 25 µM in the experiment on DAPI (run 1) and over 25 µM in the experiment on DAPI (run 2).

For the compound `CC1(C(=O)NCc2ccccc2)Cc2c(-c3cccc(C(N)=O)c3)ccnc2O1` (stereo not drawn), the IC50 in the experiment with TAG (run 1) was 20.9 µM; with TAG (run 2), over 25 µM. The IC50 cytotoxicity (DAPI nuclear signal decrease) with DAPI (mean of runs) is > 25 µM (inactive); in the experiment with DAPI (run 1), over 25 µM; in the experiment on DAPI (run 2), over 25 µM.

In the case of `CC(C)C[C@H](CO)N(Cc1ccccc1)S(=O)(=O)N(Cc1ccccc1)[C@@H](CO)CC(C)C`, the half-maximal inhibitory concentration (IC50) is 9.64 µM in the experiment with TAG (run 1) and over 25 µM in the experiment on TAG (run 2). The values for the IC50 cytotoxicity (DAPI nuclear signal decrease) in the experiment on DAPI (mean of runs), in the experiment on DAPI (run 1) and in the experiment on DAPI (run 2) were > 25 µM (inactive), over 25 µM and over 25 µM, respectively.

In the case of `CCCCCC(=O)Nc1nc(C)c(-c2csc(Nc3cc(OC)ccc3OC)n2)s1`, the half-inhibitory concentration (IC50) is 14.6 µM with TAG (mean of runs), 13.3 µM with TAG (run 1) and 15.8 µM in the experiment with TAG (run 2). Also, the figures for the IC50 cytotoxicity (DAPI nuclear signal decrease) in the experiment on DAPI (mean of runs), in the experiment with DAPI (run 1) and in the experiment on DAPI (run 2) were > 25 µM (inactive), over 25 µM and over 25 µM, respectively.

On to `COc1cc2nc(NCCCN3CCN(C)CC3)n3nc(-c4ccccc4)nc3c2cc1OC`, for which the IC50 in the experiment on TAG (mean of runs) is > 25 µM (inactive); with TAG (run 1), over 25 µM; in the experiment with TAG (run 2), over 25 µM. Besides, the IC50 cytotoxicity (DAPI nuclear signal decrease) is > 25 µM (inactive) with DAPI (mean of runs), over 25 µM in the experiment on DAPI (run 1) and over 25 µM in the experiment with DAPI (run 2).

As to `Cc1cccc2c(C(=O)N3CCN(c4ccccc4)CC3)cc(-c3ccncc3)nc12`, the IC50 in the experiment on TAG (mean of runs) is 8.06 µM; with TAG (run 1), 7.82 µM; in the experiment on TAG (run 2), 8.31 µM. Also, the values for the IC50 cytotoxicity (DAPI nuclear signal decrease) with DAPI (mean of runs), in the experiment with DAPI (run 1) and with DAPI (run 2) were > 25 µM (inactive), over 25 µM and over 25 µM, respectively.

In the case of `CCOc1ccc(CCNC(=O)CN2CCN(Cc3ccccc3C)C2=O)cc1OCC`, the half-maximal inhibitory concentration (IC50) is 2.19 µM in the experiment with TAG (mean of runs), 1.85 µM in the experiment with TAG (run 1) and 2.54 µM in the experiment on TAG (run 2). In addition, the IC50 cytotoxicity (DAPI nuclear signal decrease) in the experiment on DAPI (run 1) and in the experiment on DAPI (run 2) was over 25 µM in each case.

`CCN(CC(=O)Nc1ccc(C(=O)Nc2ccc(OC)cc2)cc1)Cc1nc2ccccc2c(=O)[nH]1`: the IC50 in the experiment on TAG (mean of runs) was > 25 µM (inactive); in the experiment on TAG (run 1) it was over 25 µM; in the experiment with TAG (run 2) it was over 25 µM. Besides, the IC50 cytotoxicity (DAPI nuclear signal decrease) in the experiment on DAPI (mean of runs) is > 25 µM (inactive); in the experiment on DAPI (run 1), over 25 µM; in the experiment with DAPI (run 2), over 25 µM.
